Experimental data from publication PMC11249646, “Small-Molecule Disruptors of the Interaction between Calcium- and Integrin-Binding Protein 1 and Integrin αIIbβ3 as Novel Antiplatelet Agents” (ACS Pharmacology & Translational Science, 2024).
Like-named read-outs stand apart in the source and are kept apart here.

Molecular target: T1, CIB1 and αIIb interaction (CIB1-GST : F-αIIb peptide) (Homo sapiens, UniProt Q99828)
T1 construct: made in house; host or cells: BL-21 plus RIL cells (E. coli)
T1 sequence (Q99828 1-191): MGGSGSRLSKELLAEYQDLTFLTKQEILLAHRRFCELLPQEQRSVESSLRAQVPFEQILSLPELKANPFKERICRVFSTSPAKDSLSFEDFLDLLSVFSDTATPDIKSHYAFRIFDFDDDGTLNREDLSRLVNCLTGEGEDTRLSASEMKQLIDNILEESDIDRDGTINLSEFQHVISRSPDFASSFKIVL
Assay: FP assay, 1536-well qHTS format (primary and confirmatory screen)
Format: binding
Settings: for IC50: read-out: IC50; for Curve Class: negative sign = inhibitory curve

[1] = qHTS primary screen hits, Table S2
[2] = qHTS primary screen hits, Table S2, negative = inhibition
[3] = qHTS primary screen hits, Table S2, several classes where COUNT > 1
[4] = qHTS primary screen of LOPAC/NPACT libraries, negative = inhibition
[5] = qHTS primary screen of LOPAC/NPACT libraries

Compound | IC50 [1] [µM] | Curve Class [3] | Efficacy (%) [4] [%] | Curve Class [5] | IC50 [5] [µM] | Efficacy (%) | Efficacy (%) [2] [%] | Curve Class [1]
O=C(N/N=C/c1ccc([N+](=O)[O-])o1)c1ccc(O)cc1 [NCGC00179496-04] | 44.7 |  |  |  |  |  |  | 
CCN(CC)C(=O)N[C@@H]1C=C2c3cccc4[nH]cc(c34)C[C@@H]2N(C)C1 [NCGC00179663-03] | 50.1 | -2.4 |  |  |  |  | -60 | 
Cl.Oc1ccc([C@H]2CNCc3c2ccc(O)c3O)cc1O [NCGC00183049-01] | 89.1 |  |  |  |  |  | -93 | -3
O=C(O)C(F)(F)F.OCc1cn(Cc2ccc(O)c3ncccc23)cn1 [NCGC00183377-01] | 44.7 | -2.2 |  |  |  |  | -33 | 
O=C(O)C(F)(F)F.O=C1c2ccccc2NC(c2ccc(-c3cccc([N+](=O)[O-])c3)o2)N1O (stereo not drawn) [NCGC00183384-01] | 56.2 | -2.4 |  |  |  |  | -23 | 
O=C(O)C(F)(F)F.O=C1c2ccccc2NC(c2ccc(-c3ccc(C(F)(F)F)cc3)o2)N1O (stereo not drawn) [NCGC00183389-01] | 56.2 |  |  |  |  |  | -24 | -2.4
C=CCNc1oc(-c2ccc(F)cc2)nc1C#N.O=C(O)C(F)(F)F [NCGC00183411-01] | 50.1 | -2.4 |  |  |  |  | -27 | 
CC(=O)NC(c1ccco1)c1cc(Br)c2cccnc2c1O.O=C(O)C(F)(F)F (stereo not drawn) [NCGC00183684-06] | 50.1 | -2.2 |  |  |  |  | -40 | 
CN(C)CCCNc1cc(O)c2ncccc2c1.O=C(O)C(F)(F)F [NCGC00183792-01] | 56.2 |  |  |  |  |  | -32 | -2.4
O=C(O)C(F)(F)F.Oc1cc(NCCN2CCOCC2)cc2cccnc12 [NCGC00183799-01] | 50.1 | -2.2 |  |  |  |  | -45 | 
CN(C)CCCNC(=O)c1ccc(-c2cc(O)c3ncccc3c2)cc1 [NCGC00183808-07] | 30.2 |  |  |  |  |  | -38 | 
CC(C)N1CCc2c(sc(NC(=O)Cc3ccccc3)c2-c2nc3ccccc3s2)C1.O=C(O)C(F)(F)F [NCGC00184841-01] | 28.2 |  |  |  |  |  | -104 | -2.1
O=C(O)C(F)(F)F.O=S(=O)(Nc1ccc(O)c2ncccc12)c1ccccc1F [NCGC00184887-02] | 79.4 | -3 |  |  |  |  | -48 | 
C#CCCC(=O)Nc1sc2c(c1-c1nc3ccccc3s1)CCN(C(C)C)C2.O=C(O)C(F)(F)F [NCGC00185086-01] | 3.5 |  |  |  |  |  | -24 | -1.4
O=C(O)C(F)(F)F.c1nc(NCCc2c[nH]cn2)c2ccc(-c3ccc4c(c3)OCO4)cc2n1 [NCGC00185971-01] | 79.4 | -2.4 |  |  |  |  | -28 | 
O=[N+]([O-])/C=C/c1ccc2c(c1)OCO2 [NCGC00186015-01] |  |  | -24 | -2.2 | 56.2 |  |  | 
O=C(O)C(F)(F)F.O=C1CCCC2=C1C1(CCCCC1)N=C(Nc1nc3ccccc3o1)N2 [NCGC00186052-01] | 56.2 | -2.4 |  |  |  |  | -23 | 
COc1cc(O)c2c(c1)/C=C/C[C@H](O)[C@H](O)C(=O)/C=C\C[C@H](C)OC2=O [NCGC00186421-07] |  |  | -26 | -2.4 | 25.1 |  |  | 
Cc1ccc(NS(=O)(=O)c2ccc3[nH]c(=O)[nH]c3c2)cc1C.O=C(O)C(F)(F)F [NCGC00187759-01] | 4 |  |  |  |  |  | -68 | -2.4

More lines, main results first:

IC50 [1] [µM] | Curve Class [3] | Efficacy (%) [4] [%] | Curve Class [5] | IC50 [5] [µM] | Efficacy (%) | Compound | Efficacy (%) [2] [%] | Curve Class [1]
 |  | -29 | -2.4 | 20 |  | C=C1C(=O)O[C@@H]2[C@H]1[C@H](O)C[C@]1(C)[C@@H](O)CC=C(C)[C@@H]21 [NCGC00180848-02] |  | 
2.8 | -1.1 |  |  |  |  | CCCC(=O)OC[C@@H](OC(=O)CCC)[C@@H](OC(=O)CCC)[C@H](Cn1c2nc(=O)[nH]c(=O)c-2nc2cc(C)c(C)cc21)OC(=O)CCC [NCGC00181300-01] | -140 | 
79.4 | -2.4 |  |  |  |  | CN(C)c1ccc(-c2ccnc(O)c2N)cc1 [NCGC00181386-01] | -24 | 
56.2 | -2.4 |  |  |  |  | CO/N=C(/C(=O)N[C@@H]1C(=O)N2C(C(=O)[O-])=C(C[n+]3ccn4ncccc43)CS[C@H]12)c1nsc(N)n1 [NCGC00181750-01] | -60 | 
44.7 | -2.4 |  |  |  |  | O=C(CN1C(=O)N/C(=C\c2cn(-c3cccc(C(=O)O)c3)cn2)C1=O)Nc1ccc(Cl)cc1 [NCGC00182401-01] | -30 | 
50.1 |  |  |  |  |  | CCC(=O)NC(c1cccs1)c1ccc2cccnc2c1O (stereo not drawn) [NCGC00182903-03] | -26 | -2.4
50.1 |  |  |  |  | -29 | c1ccc(C2Nc3cccc4cccc(c34)N2)cc1 [NCGC00182927-03] |  | -2.4
50.1 | -2.4 |  |  |  |  | Oc1cccc(C2=C3C=CC(=N3)C(c3cccc(O)c3)=C3C=CC(=N3)C(c3cccc(O)c3)=C3CCC(=N3)C(c3cccc(O)c3)=C3C=CC2=N3)c1 [NCGC00183015-01] | -29 | 
89.1 |  |  |  |  |  | CO/N=C(\C(=O)N[C@@H]1C(=O)N2C(C(=O)O)=C(Cn3nnc(C)n3)CS[C@H]12)c1csc(N)n1 [NCGC00183016-01] | -171 | -3
79.4 | -3 |  |  |  |  | Cc1c(C)c2c(c(C)c1OC(=O)CCC(=O)OCCO)CC[C@@](C)(CCC[C@H](C)CCC[C@H](C)CCCC(C)C)O2 [NCGC00183103-01] | -36 | 
 |  | -33 | -2.4 | 35.5 |  | CN(NC(=O)CC(=O)NN(C)C(=S)c1ccccc1)C(=S)c1ccccc1 [NCGC00183656-09] |  | 
50.1 | -2.2 |  |  |  |  | CC(=O)Nc1sc2c(c1-c1nc3ccccc3s1)CCN(C(C)C)C2 [NCGC00183664-03] | -54 | 
44.7 | -2.4 |  |  |  |  | CC(=O)NC(C)c1cc(Cl)c2cccnc2c1O (stereo not drawn) [NCGC00183686-01] | -34 | 
56.2 |  |  |  |  |  | CCC(=O)NC(c1ccco1)c1cc(Br)c2cccnc2c1O (stereo not drawn) [NCGC00183688-01] | -28 | -2.4
79.4 |  |  |  |  |  | CC(=O)NC(c1ccco1)c1cc(F)c2cccnc2c1O (stereo not drawn) [NCGC00183702-01] | -24 | -2.4
50.1 | -2.2 |  |  |  |  | CC(=O)NC(c1ccco1)c1cc(Cl)c2ccc(N(C)C)nc2c1O (stereo not drawn) [NCGC00183714-01] | -39 | 
39.8 | -3 |  |  |  |  | Nc1ccn(C2CO[C@H](CO)O2)c(=O)n1 (stereo partly drawn) [NCGC00183848-01] | -100 | 
 |  | -14 | -1.2 | 1.8 |  | Cc1ccc(O)c(N=Nc2ccccc2)n1 [NCGC00185991-01] |  | 
31.6 |  |  |  |  |  | O=C1c2ccccc2C(=O)c2c(NCCc3ccc(O)cc3)ccc(NCCc3ccc(O)cc3)c21 [NCGC00186017-01] | -32 | -2.2
 |  | -13 | -1.2 | 6.3 |  | CCOC(=O)C1=C(C)NC(C)=C(C(=O)OCC)C1c1c(F)c(F)c(F)c(F)c1F [NCGC00186027-01] |  | 
 |  | -13 | -1.2 | 25.1 |  | Cl.O=C(CCCCCN1CCN(c2ccccc2-c2ccccc2)CC1)NC1CCCc2ccccc21 (stereo not drawn) [NCGC00186032-01] |  | 
44.7 | -2.4 |  |  |  |  | Cl.O=c1c2ccccc2nc2sc(Nc3cccc(N4CCNCC4)c3)nn12 [NCGC00187809-01] | -32 | 
